Measured values reported in US20140186875A1, “NOVEL OPTICAL LABELING MOLECULES FOR PROTEOMICS AND OTHER BIOLOGICAL ANALYSIS” (Montana State University, priority 2007, published 2014).

How the values were obtained:
[1] = Optical properties of the dyes (absorbance, emission, extinction coefficient, quantum efficiency); type: physicochemical
[2] = tested on: Glutathione S Transferase Omega1—GSTO1; test: Differential 2D gel analysis of developing rat brain proteins raised on high and low docosahexaenoic acid; type: in vivo; conditions: DHA enriched diet compared with adequate control diet, cytosolic brain fraction
Method: Each forebrain was ground using a pestle and mortar, previously brought to liquid nitrogen temperature in a sealed plastic bag with positive dry nitrogen gas pressure. After grinding of the tissue at liquid nitrogen temperature, […] sample of cell lysis buffer containing 20 mM Bicine, 5 mM magnesium acetate, 0.5% Nonidet P-40 and Roche Complete protease inhibitor—mini EDTA free, were added to about a 100 mg sample and mixed well in a 2 ml microcentrifuge tube. Sample fractionation—Crude nuclear fraction (P1) was removed by sedimentation at 1000×g for 10 min at room temp. The supernatant (S1) was removed and was ultra-centrifuged at 100,000×g at 4° C. for an hour in 2 ml polycarbonate tubes in a swinging bucket rotor. The cytosolic fraction S2 was separated. […] Protein concentrations of the cytosolic and membrane organelle fractions were assessed, using the Bio-Rad RCDC assay. […]
1st dimension separation—the sample was spread in a lane of a Bio-Rad Protean isoelectric focusing (IEF) cell tray, an 18 cm 3-10 non-linear IPG strip, or 3-7, or 6-11 IEF strip was put on top of it, covered with mineral oil and allowed to passively re-hydrate for one hr. […] The IPG strips were then transferred to an Ettan IPGphor and covered with mineral oil for monitored iso-electric focusing as follows, 3:30 hrs 300V, 2:30 hrs 1000V, 2:30 hrs 2500V and 7:30 hrs 3500V. […]

Row | Structure (SMILES) | QE (QY) [1] [%] | ε [1] | λ(abs) [1] [nm] | λ(ems) [1] [nm] | down-regulation of spot 2 (GSTO1) [2] | up-regulation of spot 1 (GSTO1) [2]
1 | CN(CCCCCC(=O)O)CCNC(=O)C(CS(=O)(=O)[O-])NC1=C(/C=C2/N(C)c3ccccc3C2(C)C)C(=O)/C1=C\C1=[N+](C)c2ccccc2C1(C)C (centres unmarked) [Compound 222] | 2.9 | 127300 1·cm^−1·mol^−1 | 644 | 657 |  | 
2 | CC/C=C\C/C=C\C/C=C\C/C=C\C/C=C\C/C=C\CCC(=O)O [DHA, Docosahexaenoic acid] |  |  |  |  | 1.7 | 2.5
3 | CN1/C(=C/C2=C([O-])C(=C/C3=[N+](C)c4ccccc4C3(C)C)/C2=O)C(C)(C)c2ccccc21 [Compound 220] |  | 280000 1·cm^−1·mol^−1 | 629 | 640 |  | 
4 | COc1cc(C(C)OC(=O)Oc2ccc([N+](=O)[O-])cc2)c([N+](=O)[O-])cc1OCCNC(=O)C(CS(=O)(=O)[O-])NC1=C(/C=C2/N(C)c3ccccc3C2(C)C)C(=O)/C1=C\C1=[N+](C)c2ccccc2C1(C)C (centres unmarked) [Compound 230] | 3.3 | 79400 1·cm^−1·mol^−1 | 646 | 661 |  | 
5 | COc1cc(C(C)O)c([N+](=O)[O-])cc1OCCN(C)CCNC(=O)C(CS(=O)(=O)[O-])NC1=C(/C=C2/N(C)c3ccccc3C2(C)C)C(=O)/C1=C\C1=[N+](C)c2ccccc2C1(C)C (centres unmarked) [Compound 227] | 2.9 | 101400 1·cm^−1·mol^−1 | 644 | 657 |  | 
